Experimental data taken from patent EP0540676B1, “PEPTIDE COMPOUNDS HAVING GROWTH HORMONE RELEASING ACTIVITY” (POLYGEN HOLDING CORPORATION, priority 1990, dated 1994).
Several values for one entry are separate records, joined by “and”; a condition that tells them apart may be missing. Equal entries are not always repeated. Where a SMILES comes first, the peptide text is derived from it. [ ]: non-standard residue; d: D form.

Tested on: GH Release
Assay: In vivo GH release in pentobarbital anesthetized rats (serum GH by RIA)
Details: for GH Released Serum GH ng/ml ± SEM (N=6): Table 6, pentobarbital anesthetized rats (table title); for GH Released Serum GH ng/ml ± SEM (N=6) / GH Released by Compound in Column A: sacrificed 10 minutes after final injection; for activity compared with peptides having another residue in the A₂ position: in words, summary of Tables 3, 4, 5 and 6, rats; for GH Released by Compound in Column A: Table 4, pentobarbital anesthetized rats; for GH Released by Compound in Column A / GH Released: mean ± SEM, six rats; for GH Released: Table 5, anesthetized rats
Method: Immature female Sprague-Dawley rats were obtained from the Charles River Laboratories (Wilmington, MA). After arrival they were housed at 25 °C with a 14:10 hour light:dark cycle. Water and Purina rat chow were available ad libitum. Pups were kept with their mothers until 21 days of age.
Twenty-six day old rats, six rats per treatment group, were anesthetized interperitoneally with 50 mg/Kg of pentobarbital 20 minutes prior to i.v. treatment with peptide. Normal saline with 0.1% gelatin was the vehicle for intravenous (i.v.) injections of the peptides. The anesthetized rats, weighing 55-65 grams, were injected i.v. with the quantity of growth hormone releasing compounds indicated in Tables 3, 4 and 5. Injection was made as a 0.2 mL solution into the jugular vein.
All animals were sacrificed by guillotine 10 minutes after the final test injection (see Tables 3 and 4). Trunk blood for the determination of blood GH levels was collected following decapitation. After allowing the blood to clot, it was centrifuged and the serum was separated from the clot. Serum was kept fozen until the day of sampling for radioimmunasay (RIA) determination of growth hormone levels according to the following procedure, as developed by the National Institute of Arthritis, Diabetes and Digestive and Kidney Diseases (NIADDK).
Reagents are generally added to the RIA analysis tubes at a single sitting, at refrigerator temperature (about 4 °C) in the following sequence: • (a) buffer, • (b) "cold" (i.e., non-radioactive) standard or unknown serum sample to be analyzed, • (c) radio-iodinated growth hormone antigen, and • (d) growth hormone antiserum. Reagent addition is generally carried out so that there is achieved a final RIA tube dilution of about 1:30,000 (antiserum to total liquid volume; vol:vol).
The mixed reagents are then typically incubated at room temperature (about 25 °C) for about 24 hours prior to addition of a second antibody (e.g., goat or rabbit anti-monkey gamma globulin serum) which binds to and causes precipitation of the complexed growth hormone anti serum. Precipitated contents of the RIA tubes are then analyzed for the number of counts in a specified period of time in a gamma scintillation counter. A standard curve is prepared by plotting number of radioactive counts versus growth hormone (GH) level. GH levels of unknowns are then determined by reference to the standard curve.
Serum GH was measured by RIA with reagents provided by the National Hormone and Pituitary Program.
Serum levels in Tables 3, 4, 5 and 6 are recorded in ng/mL in terms of the rat GH standard of 0.61 International Units/mg (IU/mg). Data is recorded as the mean +/- standard error of the mean (SEM). Statistical analysis was performed with Student's t-test. NS means the difference was not statistically significant. In Tables 3, 4, 5 and 6 the results shown are the average of studies with six rats.

[1] = Total Dose 0.3 µg, several experiments with different controls
[2] = Total Dose 1.0 µg, several experiments with different controls

## C[C@H](N)C(=O)N[C@H](Cc1ccc2ccccc2c1)C(=O)N[C@@H](C)C(=O)N[C@@H](Cc1c[nH]c2ccccc12)C(=O)N[C@H](Cc1ccccc1)C(=O)N[C@@H](CCCCN)C(N)=O [Ala-DβNal-Ala-Trp-DPhe-Lys-NH₂] (HELM PEPTIDE1{A.[O=C([C@@H](Cc1ccc2ccccc2c1)N[*:1])[*:2]].A.W.[dF].K.[am]}$$$$V2.0)
[1]
  GH Released Serum GH ng/ml ± SEM (N=6): 363 ± 73 ng/mL
[2]
  GH Released Serum GH ng/ml ± SEM (N=6): 1450 ± 294 ng/mL
Total Dose 3.0 µg
  GH Released Serum GH ng/ml ± SEM (N=6): 2072 ± 208 ng/mL
Total Dose 10.0 µg
  GH Released Serum GH ng/ml ± SEM (N=6): 2698 ± 369 ng/mL

## C[C@H](N)C(=O)N[C@@H](Cc1c[nH]cn1)C(=O)N[C@H](Cc1ccc2ccccc2c1)C(=O)N[C@@H](C)C(=O)N[C@@H](Cc1c[nH]c2ccccc12)C(=O)N[C@H](Cc1ccccc1)C(=O)N[C@@H](CCCCN)C(N)=O [Ala-His-DβNal-Ala-Trp-DPhe-Lys-NH₂, Ala-His-D^βNal-Ala-Trp-DPhe-Lys-NH₂] (HELM PEPTIDE1{A.H.[O=C([C@@H](Cc1ccc2ccccc2c1)N[*:1])[*:2]].A.W.[dF].K.[am]}$$$$V2.0)
Total Dose 0.1 µg, several experiments with different controls
  GH Released Serum GH ng/ml ± SEM (N=6): 822 ± 243 ng/mL and 610 ± 90 ng/mL
[1]
  GH Released Serum GH ng/ml ± SEM (N=6): 1418 ± 302 ng/mL and 1746 ± 318 ng/mL and 1549 ± 292 ng/mL and 1140 ± 187 ng/mL
[2]
  GH Released Serum GH ng/ml ± SEM (N=6): 2201 ± 269 ng/mL and 2610 ± 176 ng/mL and 2180 ± 284 ng/mL and 2909 ± 257 ng/mL
Total Dose 3.0 µg
  GH Released Serum GH ng/ml ± SEM (N=6): 3686 ± 436 ng/mL
  activity compared with peptides having another residue in the A₂ position: more active than the equivalent DTrp compound

## C[C@H](N)C(=O)N[C@@H](Cc1c[nH]cn1)C(=O)N[C@H](Cc1c[nH]cn1)C(=O)N[C@@H](C)C(=O)N[C@@H](Cc1c[nH]c2ccccc12)C(=O)N[C@H](Cc1ccccc1)C(=O)N[C@@H](CCCCN)C(N)=O [AlaHisDHisAlaTrpDPheLysNH₂] (HELM PEPTIDE1{A.H.[dH].A.W.[dF].K.[am]}$$$$V2.0)
Total Dose .3 µg i.v.
  GH Released by Compound in Column A: 268 ± 54 ng/mL

## C[C@H](N)C(=O)N[C@@H](Cc1c[nH]cn1)C(=O)N[C@H](Cc1ccccc1)C(=O)N[C@@H](C)C(=O)N[C@@H](Cc1c[nH]c2ccccc12)C(=O)N[C@H](Cc1ccccc1)C(=O)N[C@@H](CCCCN)C(N)=O [AlaHisDPheAlaTrpDPheLysNH₂] (HELM PEPTIDE1{A.H.[dF].A.W.[dF].K.[am]}$$$$V2.0)
Total Dose .3 µg i.v.
  GH Released by Compound in Column A: 616 ± 74 ng/mL

## C[C@H](N)C(=O)N[C@@H](Cc1c[nH]cn1)C(=O)N1CCC[C@@H]1C(=O)N[C@@H](C)C(=O)N[C@@H](Cc1c[nH]c2ccccc12)C(=O)N[C@H](Cc1ccccc1)C(=O)N[C@@H](CCCCN)C(N)=O [AlaHisDProAlaTrpDPheLysNH₂] (HELM PEPTIDE1{A.H.[dP].A.W.[dF].K.[am]}$$$$V2.0)
Total Dose .3 µg i.v.
  GH Released by Compound in Column A: 262 ± 51 ng/mL

## C[C@H](N)C(=O)N[C@@H](Cc1c[nH]cn1)C(=O)N[C@H](Cc1c[nH]c2ccccc12)C(=O)N[C@@H](C)C(=O)N[C@@H](Cc1c[nH]c2ccccc12)C(=O)N[C@H](Cc1ccccc1)C(=O)N[C@@H](CCCCN)C(N)=O [AlaHisDTrpAlaTrpDPheLysNH₂] (HELM PEPTIDE1{A.H.[dW].A.W.[dF].K.[am]}$$$$V2.0)
Total Dose .3 µg i.v.
  GH Released by Compound in Column A: 901 ± 21 ng/mL

## C[C@H](NC(=O)[C@@H](N)Cc1c[nH]cn1)C(=O)N[C@H](Cc1c[nH]c2ccccc12)C(=O)N[C@@H](C)C(=O)N[C@@H](Cc1c[nH]c2ccccc12)C(=O)N[C@H](Cc1ccccc1)C(=O)N[C@@H](CCCCN)C(N)=O [His-Ala-DTrp-Ala-Trp-DPhe-Lys-NH₂] (HELM PEPTIDE1{H.A.[dW].A.W.[dF].K.[am]}$$$$V2.0)
Total Dose 1.0 µg i.v.
  GH Released: 830 ± 103 ng/mL
Total Dose 3.0 µg i.v.
  GH Released: 2588 ± 341 ng/mL
Total Dose .3 µg i.v.
  GH Released: 261 ± 32 ng/mL

## C[C@H](NC(=O)[C@@H](CC(=O)O)NC(=O)[C@@H](N)Cc1c[nH]cn1)C(=O)N[C@@H](Cc1c[nH]c2ccccc12)C(=O)N[C@H](Cc1ccccc1)C(=O)N[C@@H](CCCCN)C(N)=O [His-DAsp-Ala-Trp-DPhe-Lys-NH₂] (HELM PEPTIDE1{H.[dD].A.W.[dF].K.[am]}$$$$V2.0)
Total Dose 1.0 µg i.v.
  GH Released: 154 ± 63 ng/mL
Total Dose 3.0 µg i.v.
  GH Released: 155 ± 34 ng/mL
Total Dose 10.0 µg i.v.
  GH Released: 163 ± 44 ng/mL
Total Dose 30.0 µg i.v.
  GH Released: 224 ± 62 ng/mL
Total Dose 100.0 µg i.v.
  GH Released: 178 ± 83 ng/mL

## CSC[C@@H](NC(=O)[C@@H](N)Cc1c[nH]cn1)C(=O)N[C@@H](C)C(=O)N[C@@H](Cc1c[nH]c2ccccc12)C(=O)N[C@H](Cc1ccccc1)C(=O)N[C@@H](CCCCN)C(N)=O [His-DCys(SMe)-Ala-Trp-DPhe-Lys-NH₂] (H-H[dC](Me)AW[dF]K-NH2)
Total Dose 1.0 µg i.v.
  GH Released: 193 ± 28 ng/mL
Total Dose 3.0 µg i.v.
  GH Released: 180 ± 34 ng/mL
Total Dose .3 µg i.v.
  GH Released: 178 ± 28 ng/mL

## C[C@H](NC(=O)[C@@H](Cc1ccccc1)NC(=O)[C@H](Cc1c[nH]c2ccccc12)NC(=O)[C@H](C)NC(=O)[C@@H](Cc1c[nH]c2ccccc12)NC(=O)[C@@H](N)Cc1c[nH]cn1)C(=O)N[C@@H](CCCCN)C(N)=O [His-DTrp-Ala-Trp-DPhe-Ala-Lys-NH₂] (HELM PEPTIDE1{H.[dW].A.W.[dF].A.K.[am]}$$$$V2.0)
Total Dose 1.0 µg i.v.
  GH Released: 1965 ± 366 ng/mL
Total Dose 3.0 µg i.v.
  GH Released: 4553 ± 670 ng/mL
Total Dose .1 µg i.v.
  GH Released: 420 ± 105 ng/mL
Total Dose .3 µg i.v.
  GH Released: 900 ± 163 ng/mL

## C[C@H](NC(=O)[C@@H](Cc1c[nH]c2ccccc12)NC(=O)[C@@H](N)Cc1c[nH]cn1)C(=O)N[C@@H](Cc1c[nH]c2ccccc12)C(=O)N[C@H](Cc1ccccc1)C(=O)N[C@@H](CCCCN)C(N)=O [His-DTrp-Ala-Trp-DPhe-Lys-NH₂] (HELM PEPTIDE1{H.[dW].A.W.[dF].K.[am]}$$$$V2.0)
Total Dose 1.0 µg i.v.
  GH Released: 1531 ± 303 ng/mL
Total Dose 3.0 µg i.v.
  GH Released: 2349 ± 267 ng/mL
Total Dose .1 µg i.v.
  GH Released: 512 ± 43 ng/mL
Total Dose .3 µg i.v.
  GH Released: 566 ± 114 ng/mL

## C[C@H](NC(=O)[C@@H](Cc1cccc2ccccc12)NC(=O)[C@@H](N)Cc1c[nH]cn1)C(=O)N[C@@H](Cc1c[nH]c2ccccc12)C(=O)N[C@H](Cc1ccccc1)C(=O)N[C@@H](CCCCN)C(N)=O [His-D^αNal-Ala-Trp-DPhe-Lys-NH₂] (HELM PEPTIDE1{H.[O=C([C@@H](Cc1cccc2ccccc12)N[*:1])[*:2]].A.W.[dF].K.[am]}$$$$V2.0)
Total Dose 1.0 µg i.v.
  GH Released: 1130 ± 179 ng/mL
Total Dose 3.0 µg i.v.
  GH Released: 2319 ± 139 ng/mL
Total Dose .1 µg i.v.
  GH Released: 280 ± 70 ng/mL
Total Dose .3 µg i.v.
  GH Released: 439 ± 122 ng/mL

## C[C@H](NC(=O)[C@@H](Cc1ccccc1)NC(=O)[C@H](Cc1c[nH]c2ccccc12)NC(=O)[C@H](C)NC(=O)[C@@H](Cc1ccc2ccccc2c1)NC(=O)[C@@H](N)Cc1c[nH]cn1)C(=O)N[C@@H](CCCCN)C(N)=O [His-D^βNal-Ala-Trp-DPhe-Ala-Lys-NH₂] (HELM PEPTIDE1{H.[O=C([C@@H](Cc1ccc2ccccc2c1)N[*:1])[*:2]].A.W.[dF].A.K.[am]}$$$$V2.0)
Total Dose 1.0 µg i.v.
  GH Released: 1593 ± 359 ng/mL
Total Dose 3.0 µg i.v.
  GH Released: 3337 ± 583 ng/mL
Total Dose .1 µg i.v.
  GH Released: 484 ± 89 ng/mL
Total Dose .3 µg i.v.
  GH Released: 971 ± 241 ng/mL

## C[C@H](NC(=O)[C@@H](Cc1ccc2ccccc2c1)NC(=O)[C@@H](N)Cc1c[nH]cn1)C(=O)N[C@@H](Cc1c[nH]c2ccccc12)C(=O)N[C@H](Cc1ccccc1)C(=O)N[C@@H](CCCCN)C(N)=O [His-D^βNal-Ala-Trp-DPhe-Lys-NH₂] (HELM PEPTIDE1{H.[O=C([C@@H](Cc1ccc2ccccc2c1)N[*:1])[*:2]].A.W.[dF].K.[am]}$$$$V2.0)
  activity compared with peptides having another residue in the A₂ position: more active than compounds having DTrp, D^αNal, DAsp, and DCys (SMe) in the A₂ position
